# Measurements as given in patent US6737383B1, “Herbicidal oxadiazolidines” (priority 1999, dated 2004).
# Tests used:
# [1] = tested on: bedstraw; assay: Test B pre/postemergence bedstraw; assay type: in vivo, Galium aparine
# Method in brief: (§1)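 Herbicidal effect was estimated by eye on a ten-point control scale after plants spent twelve to sixteen days in a greenhouse following soil or foliar treatment. Foliar sprays targeted plants at one to four leaves; all doses were formulated in a non-phytotoxic solvent with surfactant.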
# [2] = tested on: blackgrass; assay: Test B pre/postemergence blackgrass; assay type: in vivo, Alopecurus myosuroides
# Method in brief: as §1
# [3] = tested on: surinam grass; assay: Test B pre/postemergence surinam grass; assay type: in vivo, Brachiaria decumbens
# Method in brief: as §1
# [4] = tested on: cocklebur; assay: Test B pre/postemergence cocklebur; assay type: in vivo, Xanthium strumarium
# Method in brief: as §1
# [5] = tested on: corn; assay: Test B pre/postemergence corn; assay type: in vivo, Zea mays
# Method in brief: as §1
# [6] = tested on: crabgrass; assay: Test B pre/postemergence crabgrass; assay type: in vivo, Digitaria sanguinalis
# Method in brief: as §1
# [7] = tested on: giant foxtail; assay: Test B pre/postemergence giant foxtail; assay type: in vivo, Setaria faberii
# Method in brief: as §1
# [8] = tested on: morningglory; assay: Test B pre/postemergence morningglory; assay type: in vivo, Ipomoea hederacea
# Method in brief: as §1
# [9] = tested on: soybean; assay: Test B pre/postemergence soybean; assay type: in vivo, Glycine max
# Method in brief: as §1
# [10] = tested on: velvetleaf; assay: Test B pre/postemergence velvetleaf; assay type: in vivo, Abutilon theophrasti
# Method in brief: as §1
# [11] = tested on: wheat; assay: Test B pre/postemergence wheat; assay type: in vivo, Triticum aestivum
# Method in brief: as §1
# [12] = tested on: wild oat; assay: Test B pre/postemergence wild oat; assay type: in vivo, Avena fatua
# Method in brief: as §1
# [13] = tested on: purple nutsedge; assay: Test B pre/postemergence purple nutsedge; assay type: in vivo, Cyperus rotundus
# Method in brief: as §1
# [14] = tested on: rice; assay: Test B flood test rice; assay type: in vivo, Oryza sativa
# Method in brief: (§2)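 Flood test on plants grown to the 2-leaf stage; treated plants kept in greenhouse twelve to sixteen days, then visually rated against controls on a 0 (no effect) to 10 (complete control) scale.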
# [15] = tested on: smallflower flatsedge; assay: Test B flood test smallflower flatsedge; assay type: in vivo, Cyperus difformis
# Method in brief: as §2
# [16] = tested on: duck salad; assay: Test B flood test duck salad; assay type: in vivo, Heteranthera limosa
# Method in brief: as §2
# [17] = tested on: bamyardgrass; assay: Test B flood test barnyardgrass; assay type: in vivo, Echinochloa crus-galli
# Method in brief: as §2
# [18] = Preemergence, Rate 62 g/ha, scale of 0 to 10 where 0 is no effect and 10 is complete control
# [19] = Preemergence, Rate 250 g/ha, scale of 0 to 10 where 0 is no effect and 10 is complete control
# [20] = Preemergence, Rate 500 g/ha, scale of 0 to 10 where 0 is no effect and 10 is complete control
# [21] = Rate 62 g/ha, Postemergence, scale 0 to 10 (0 no effect, 10 complete control)
# [22] = Rate 125 g/ha, Postemergence, scale of 0 to 10 where 0 is no effect and 10 is complete control
# [23] = Rate 250 g/ha, Postemergence, scale of 0 to 10 where 0 is no effect and 10 is complete control
# [24] = Rate 500 g/ha, Postemergence, scale 0 to 10, 0 no effect, 10 complete control
# [25] = Rate 62 g/ha, headed Pre-emergence (flood test species), scale 0 to 10 (0 no effect, 10 complete control)
# [26] = Rate 125 g/ha, Pre-emergence, flood test species, scale 0 to 10 where 0 is no effect and 10 is complete control
# [27] = Rate 250 g/ha, Pre-emergence, flood-test species, scale 0 to 10, 0 is no effect, 10 is complete control
# [28] = Rate 500 g/ha, Pre-emergence, flood test species, scale 0 to 10 (0 no effect, 10 complete control)
compound,measurement,setting,value
CC(C)N(C(=O)n1oc(=O)n(C2CCCCO2)c1=O)c1ccc(F)cc1 (stereo not shown) [Compound 311],Bedstraw plant response rating,[1]; [18],0
same,Bedstraw plant response rating (0 to 10 scale),"[1]; Preemergence, Rate 125 g/ha",0
same,Bedstraw plant response rating,[1]; [19],0
same,Bedstraw plant response rating,[1]; [20],0
same,Bedstraw plant response rating,[1]; [21],0
same,Bedstraw plant response rating,[1]; [22],0
same,"Plant response rating, Bedstraw",[1]; [23],0
same,Bedstraw plant response rating,[1]; [24],2
same,Blackgrass plant response rating,[2]; [18],0
same,Blackgrass plant response rating (0 to 10 scale),"[2]; Preemergence, Rate 125 g/ha",0
same,Blackgrass plant response rating,[2]; [19],0
same,Blackgrass plant response rating,[2]; [20],0
same,Blackgrass plant response rating,[2]; [21],0
same,Blackgrass plant response rating,[2]; [22],0
same,"Plant response rating, Blackgrass",[2]; [23],0
same,Blackgrass plant response rating,[2]; [24],0
same,B. signalgrass plant response rating,[3]; [18],0
same,"B. signalgrass plant response rating (0 to 10 scale, 0 is no effect, 10 is complete control)","[3]; Preemergence, Rate 125 g/ha",0
same,B. signalgrass plant response rating,[3]; [19],0
same,B. signalgrass plant response rating,[3]; [20],0
same,B. signalgrass plant response rating,[3]; [21],0
same,B. signalgrass plant response rating,[3]; [22],0
same,"Plant response rating, B. signalgrass",[3]; [23],0
same,B. signalgrass plant response rating,[3]; [24],0
same,Cocklebur plant response rating,[4]; [18],0
same,Cocklebur plant response rating (0 to 10 scale),"[4]; Preemergence, Rate 125 g/ha",0
same,Cocklebur plant response rating,[4]; [19],0
same,Cocklebur plant response rating,[4]; [20],0
same,Cocklebur plant response rating,[4]; [21],0
same,Cocklebur plant response rating,[4]; [22],0
same,"Plant response rating, Cocklebur",[4]; [23],0
same,Cocklebur plant response rating,[4]; [24],0
same,Corn plant response rating,[5]; [18],0
same,Corn plant response rating (0 to 10 scale),"[5]; Preemergence, Rate 125 g/ha",0
same,Corn plant response rating,[5]; [19],0
same,Corn plant response rating,[5]; [20],0
same,Corn plant response rating,[5]; [21],0
same,Corn plant response rating,[5]; [22],0
same,"Plant response rating, Corn",[5]; [23],0
same,Corn plant response rating,[5]; [24],0
same,Crabgrass plant response rating,[6]; [18],0
same,Crabgrass plant response rating (0 to 10 scale),"[6]; Preemergence, Rate 125 g/ha",0
same,Crabgrass plant response rating,[6]; [19],0
same,Crabgrass plant response rating,[6]; [20],0
same,Crabgrass plant response rating,[6]; [21],0
same,Crabgrass plant response rating,[6]; [22],0
same,"Plant response rating, Crabgrass",[6]; [23],0
same,Giant foxtail plant response rating,[7]; [18],0
same,Giant foxtail plant response rating (0 to 10 scale),"[7]; Preemergence, Rate 125 g/ha",0
same,Giant foxtail plant response rating,[7]; [19],0
same,Giant foxtail plant response rating,[7]; [20],0
same,Giant foxtail plant response rating,[7]; [21],0
same,Giant foxtail plant response rating,[7]; [22],0
same,"Plant response rating, Giant foxtail",[7]; [23],0
same,Morningglory plant response rating,[8]; [18],0
same,Morningglory plant response rating (0 to 10 scale),"[8]; Preemergence, Rate 125 g/ha",0
same,Morningglory plant response rating,[8]; [19],0
same,Morningglory plant response rating,[8]; [20],0
same,Morningglory plant response rating,[8]; [21],0
same,Morningglory plant response rating,[8]; [22],4
same,"Plant response rating, Morningglory",[8]; [23],8
same,Soybean plant response rating,[9]; [18],0
same,Soybean plant response rating (0 to 10 scale),"[9]; Preemergence, Rate 125 g/ha",0
same,Soybean plant response rating,[9]; [19],0
same,Soybean plant response rating,[9]; [20],0
same,Soybean plant response rating,[9]; [21],2
same,Soybean plant response rating,[9]; [22],2
same,"Plant response rating, Soybean",[9]; [23],3
same,Velvetleaf plant response rating,[10]; [18],0
same,Velvetleaf plant response rating (0 to 10 scale),"[10]; Preemergence, Rate 125 g/ha",0
same,Velvetleaf plant response rating,[10]; [19],0
same,Velvetleaf plant response rating,[10]; [20],0
same,Velvetleaf plant response rating,[10]; [21],0
same,Velvetleaf plant response rating,[10]; [22],0
same,"Plant response rating, Velvetleaf",[10]; [23],0
same,Wheat plant response rating,[11]; [18],0
same,Wheat plant response rating (0 to 10 scale),"[11]; Preemergence, Rate 125 g/ha",0
same,Wheat plant response rating,[11]; [19],0
same,Wheat plant response rating,[11]; [20],0
same,Wheat plant response rating,[11]; [21],0
same,Wheat plant response rating,[11]; [22],0
same,"Plant response rating, Wheat",[11]; [23],0
same,Wild oats plant response rating,[12]; [18],0
same,Wild oats plant response rating (0 to 10 scale),"[12]; Preemergence, Rate 125 g/ha",0
same,Wild oats plant response rating,[12]; [19],0
same,Wild oats plant response rating,[12]; [20],0
same,Wild oats plant response rating,[12]; [21],0
same,Wild oats plant response rating,[12]; [22],0
same,"Plant response rating, Wild oats",[12]; [23],0
same,Nutsedge plant response rating,[13]; [18],0
same,Nutsedge plant response rating (0 to 10 scale),"[13]; Preemergence, Rate 125 g/ha",0
same,Nutsedge plant response rating,[13]; [19],0
same,Nutsedge plant response rating,[13]; [20],0
same,Nutsedge plant response rating,[13]; [21],0
same,Nutsedge plant response rating,[13]; [22],0
same,"Plant response rating, Nutsedge",[13]; [23],0
same,Rice plant response rating,[14]; [25],0
same,Rice plant response rating,[14]; [26],0
same,Rice plant response rating,[14]; [27],0
same,Rice plant response rating,[14]; [28],0
same,S. Flatsedge plant response rating,[15]; [25],0
same,S. Flatsedge plant response rating,[15]; [26],0
same,S. Flatsedge plant response rating,[15]; [27],0
same,S. Flatsedge plant response rating,[15]; [28],0
same,Ducksalad plant response rating,[16]; [25],0
same,Ducksalad plant response rating,[16]; [26],0
same,Ducksalad plant response rating,[16]; [27],0
same,Ducksalad plant response rating,[16]; [28],0
same,Barnyardgrass plant response rating,[17]; [25],0
same,Barnyardgrass plant response rating,[17]; [26],0
same,Barnyardgrass plant response rating,[17]; [27],0
same,Barnyardgrass plant response rating,[17]; [28],0
